Test results taken from ChEMBL document CHEMBL5252604, “11C-Labeling of acyclic retinoid peretinoin by rapid C-[11C]methylation to disclose novel brain permeability and central nervous system activities hidden in antitumor agent” (Bioorg Med Chem Lett, 2023).

Key:
[1] = Drug uptake in iv dosed Wistar rat assessed as standardized uptake value by PET imaging analysis; assay type: ADME, organism-based; details: in vivo
[2] = Drug uptake in iv dosed mouse liver assessed as standardized uptake value at 5 mins by PET imaging analysis; assay type: ADME, organism-based; details: in vivo
[3] = Drug metabolism in iv dosed Wistar rat blood assessed as metabolite formation after 30 mins RP-HPLC analysis; assay type: ADME, organism-based; details: in vivo, 0.5 h
[4] = Drug metabolism in iv dosed Wistar rat brain assessed as metabolite formation after 30 to 90 mins RP-HPLC analysis; assay type: ADME, organism-based; details: in vivo, time 30-90 min
[5] = Drug uptake in iv dosed Wistar rat brain assessed as standardized uptake value after 120 mins by PET imaging analysis; assay type: ADME, organism-based; details: in vivo, 2 h
[6] = Drug uptake in iv dosed mouse liver assessed as standardized uptake value at 60 mins by PET imaging analysis; assay type: ADME, organism-based; details: in vivo, 1 h
[7] = Drug uptake in iv dosed monkey brain assessed as standardized uptake value after 90 mins by PET imaging analysis; assay type: ADME, organism-based, Macaca mulatta; details: rhesus monkey, in vivo, 1.5 h
[8] = Drug uptake in iv dosed mouse brain assessed as standardized uptake value by PET imaging analysis; assay type: ADME, organism-based; details: in vivo
[9] = Drug uptake in iv dosed Wistar rat brain after 3 mins; assay type: ADME, organism-based; details: in vivo, 0.05 h

Row | SUV [1] | SUV [2] | Drug metabolism [3] | Drug metabolism [4] | SUV [5] | SUV [6] | SUV [7] | SUV [8] | Drug uptake [9] | Structure (SMILES)
1 | 0.6 |  |  |  |  |  |  |  |  | CC(C)=CCC/C(C)=C/CC/C(C)=C/C=C/C([11CH3])=C/C(=O)OCc1ccccc1
2 |  | 6.7 | Metabolite_Detected | Metabolite_Detected | 1.4 | 4.3 | > 3 | 0.8 | Active | CC(C)=CCC/C(C)=C/CC/C(C)=C/C=C/C([11CH3])=C/C(=O)O
